Assay results published in PMC6770071, “XIAP as a Target of New Small Organic Natural Molecules Inducing Human Cancer Cell Death” (Cancers, 2019).
Converted amounts (≈) assume the structure as drawn. Where two headings read alike, the source gives them in different places.

How the values were obtained:
MCF7 cells [1] = assay: TMRM mitochondrial membrane potential analysis, MCF7 cells; type: cell-based, human; details: gibbilimbol B/eriopodol A 30 µg/mL, erioquinol 10 µg/mL; for TMRM fluorescence (mitochondria membrane potential): MCF7, increasing time; for time to full response of TMRM fluorescence decrease: MCF7
Experimental: Using published protocols, mitochondria of MCF7 and U373 cells were labeled using TMRM, a voltage-sensitive cationic lipophilic dye, partitioning and accumulating in the mitochondrial matrix based upon the Nernst equation. After treatments, cells were trypsinised, counted and incubated with 100 nM TMRM for 30 min at 37 °C. Fluorescence was measured by using a Glomax Multi Detection System microplate reader (Promega), excitation wavelength: 525 nm; emission wavelength: 580–640 nm). After background subtraction, the data were normalised on cell number.

MCF10 cells = assay: MTT cell viability assay, MCF10 cells; type: cell-based; details: Homo sapiens, 24 h, non-tumourigenic breast MCF10 cells
Experimental: (§1) Human U373 glioma, MCF7 breast cancer, A549 lung cancer and PC-3 prostate cancer cells were grown in Dulbecco’s Modified Eagle Medium (DMEM), supplemented with 10% foetal bovine serum, 2 mM glutamine, 100 U/mL penicillin/streptomycin, at 37 °C in a humidified atmosphere containing 5% CO2 (logarithmic growth phase, routine passages every 3 days). The human breast epithelial cell line MCF10 was cultured in DMEM/F12 Ham’s Mixture supplemented with 5% horse serum, epithelial growth factor 20 ng/mL, insulin 10 μg/mL, hydrocortisone 0.5 mg/mL, cholera toxin 100 ng/mL, and 100 U/mL penicillin/streptomycin. […]
(§2) U373, MCF7, A549, PC-3, HUVEC, and MCF10 cell viability was determined by MTT assay using published protocols. MTT absorbance was quantified spectrophotometrically using a Glomax Multi Detection System microplate reader (Promega, Milano, Italy).
(§3) Statistical significance of raw data between the groups in each experiment was evaluated using unpaired Student’s t-test (single comparisons) or one-way ANOVA followed by the Newman-Keuls post-test (multiple comparisons). The IC50 and Emax concentration were determined by non-linear regression curve analysis of the concentration-effect responses. […] The results were expressed as means ± standard error of mean (SEM) of the indicated n values.

MCF7 cells [2] = assay: ROS detection with DCFH-DA, MCF7 cells; type: cell-based, human; details: MCF7, 6 h; gibbilimbol B/eriopodol A 30 µg/mL, erioquinol 10 µg/mL
Experimental: (§4) MCF7 or U373 cells cultured in 120-mm coverslips were exposed to 30 µM DCFH-DA (0.1 M PB, pH 7.4) and fixed in 4% paraformaldehyde for 20 min. For fluorescence detection, coverslips were mounted on glass slides and observed with a laser-scanning confocal microscope (TCS SP8 System and Application suite X, Leica Microsystems). DAPI and fluorescein phalloidin (nuclei and cytoskeleton detection, respectively) staining was also used.

[3] = system: human umbilical vein endothelial cells (HUVEC); assay: MTT cell viability assay, HUVEC; type: cell-based; details: 24 h
Experimental: as §1, §2, §3

MCF7 cells [4] = assay: MTT cell viability assay, MCF7 cells; type: cell-based, human; details: for IC50: Homo sapiens, MTT; for loss of cell viability (MTT) with simultaneous 50 µM Z-VAD-(OMe)-FMK: MCF7, 6 h, gibbilimbol B/eriopodol A 30 µg/mL, erioquinol 10 µg/mL
Experimental: Human U373 glioma, MCF7 breast cancer, A549 lung cancer and PC-3 prostate cancer cells were grown in Dulbecco’s Modified Eagle Medium (DMEM), supplemented with 10% foetal bovine serum, 2 mM glutamine, 100 U/mL penicillin/streptomycin, at 37 °C in a humidified atmosphere containing 5% CO2 (logarithmic growth phase, routine passages every 3 days). The human breast epithelial cell line MCF10 was cultured in DMEM/F12 Ham’s Mixture supplemented with 5% horse serum, epithelial growth factor 20 ng/mL, insulin 10 μg/mL, hydrocortisone 0.5 mg/mL, cholera toxin 100 ng/mL, and 100 U/mL penicillin/streptomycin. HUVEC were grown in EGM-2 Endothelial Cell Growth Medium-2 BulletKit (Lonza, Basel, Switzerland), according to the manufacturer’s protocol.
as §2
Statistical significance of raw data between the groups in each experiment was evaluated using unpaired Student’s t-test (single comparisons) or one-way ANOVA followed by the Newman-Keuls post-test (multiple comparisons). The IC50 and Emax concentration were determined by non-linear regression curve analysis of the concentration-effect responses. Potency values among concentration-response curves were compared with the F-test. Data belonging from different experiments were represented and averaged in the same graph. The GraphPad Prism software package (GraphPad Software, San Diego, CA, USA) was used. The results were expressed as means ± standard error of mean (SEM) of the indicated n values.

MCF7 cells [5] = assay: MTT assay and cleaved-caspase 7 western blot in XIAP siRNA-transfected MCF7 cells treated with compounds; type: cell-based, human; details: MCF7, XIAP siRNA 50 nM 24 h; for toxicity (MTT absorbance) after XIAP downregulation: then 6 h, gibbilimbol B/eriopodol A 30 μg/mL, erioquinol 10 μg/mL
Experimental: as §2
Using published protocols, MCF7 and MCF10 cells were homogenised in RIPA lysis buffer, supplemented with a cocktail of protease inhibitors (cOmplete; Roche Diagnostics, Milano, Italy). Equal amounts of proteins were separated by 4–20% SDS-polyacrylamide gel electrophoresis (Criterion TGX Stain-free precast gels and Criterion Cell system; Bio-Rad, Hercules, CA, USA) and transferred onto nitrocellulose membrane using a Bio-Rad Trans-Blot Turbo System. When indicated, the membranes were probed using the rabbit monoclonal anti-cleaved caspase 7 and anti-XIAP (Cell Signaling Technology) primary antibodies. After the incubation with the appropriate horseradish-peroxidase-conjugated secondary antibody (Cell Signaling Technology), bands were visualised using the Clarity Western ECL substrate with a ChemiDoc MP imaging system (Bio-Rad). To monitor for potential artefacts in loading and transfer among samples in different lanes, the blots were routinely treated with the Restore Western Blot Stripping Buffer (ThermoFisher Scientific) and re-probed with the goat anti-Lactate dehydrogenase (LDH)-A (Santa Cruz Biotechnology) and the mouse anti-vinculin primary antibodies. The stain-free gel was used as loading control as well. When appropriated, bands were quantified for densitometry using the Bio-Rad Image Lab software.
Gene silencing of XIAP in MCF7 cells was performed as previously published. Briefly, according to the manufacturer’s protocol, iBONI siRNA Pool (Riboxx, Radebeul, Germany) targeting human XIAP were mixed to Lipofectamine RNAiMax transfection reagent (Life Technologies). iBONI siRNA Pool negative control (Riboxx) (scrambled targeting siRNAs) was also used. The mix was added to cultured MCF7 cells at a siRNA concentration of 50 nM for 24 h.

MCF7 cells [6] = assay: Confocal co-localisation of cytochrome c with COX IV, MCF7 cells; type: cell-based, human; details: MCF7, 3 h; gibbilimbol B/eriopodol A 30 µg/mL, erioquinol 10 µg/mL
Experimental: (§5) Using published protocols, MCF7 or U373 cells cultured in 120-mm coverslips were fixed in 4% paraformaldehyde in 0.1 M PB, pH 7.4, for 10 min. Cells were pre-incubated for 1 h min with 5% of normal goat serum (Life Technologies, Monza, Italy) in 0.1 M PB (pH 7.4) containing 0.1% Triton X-100, before overnight incubation with the rabbit monoclonal anti-cleaved caspase 7 (Cell Signaling Technology, Danvers, MA, USA). In double-label immunofluorescence experiments, the mouse monoclonal anti-cytochrome c primary antibody (Cell Signaling Technology) was used in conjunction with the rabbit monoclonal primary antibody directed to COX IV (Cell Signaling Technology). For fluorescence detection, coverslips were stained with the appropriate Alexa Fluor secondary antibodies (Life Technologies) and mounted on glass slides in a ProLong Gold Antifade Mountant (Life Technologies). DAPI and/or fluorescein phalloidin (cytoskeleton detection) staining was also used. Cells were analysed with a DMI4000 B automated inverted microscope equipped with a DCF310 digital camera (Leica Microsystems, Wetzlar, Germany). When indicated, confocal imaging was performed with a TCS SP8 System (Leica Microsystems). Image acquisitions were controlled by the Leica Application Suite X.

U373 cells = assay: ROS detection with DCFH-DA, U373 cells; type: cell-based, human; details: U373, 6 h; gibbilimbol B/eriopodol A 30 µg/mL, erioquinol 10 µg/mL
Experimental: as §4

caspase 7 = assay: Cleaved-caspase 7 immunofluorescence in U373 cells; type: cell-based, human; details: U373, 6 h; gibbilimbol B/eriopodol A 30 µg/mL, erioquinol 10 µg/mL
Experimental: as §5

[7] = MCF7, 24 h (Table 1), read-out: IC50 (μg/mL) MCF7 Cells
[8] = MCF7, 6 h exposure (time-response), read-out: IC50
[9] = MCF7, 12 h exposure (time-response), read-out: IC50

| SMILES | TMRM fluorescence (mitochondria membrane potential) (MCF7 cells [1]) | time to full response of TMRM fluorescence decrease (MCF7 cells [1]) [h] | IC50 (MCF10 cells) [µg/mL] | ROS (DCFH-DA staining) (MCF7 cells [2]) | IC50 [3] [µg/mL] | IC50 (MCF7 cells [4]; [7]) [µg/mL] | IC50 (MCF7 cells [4]; [8]) [µg/mL] | IC50 (MCF7 cells [4]; [9]) [µg/mL] | IC50 (MCF7 cells [4]; MCF7, 24 h exposure (time-response), read-out: IC50) [µg/mL] | loss of cell viability (MTT) with simultaneous 50 µM Z-VAD-(OMe)-FMK (MCF7 cells [4]) | concentration-dependent inhibition of MTT absorbance with 50 µM necrostatin-1 and 10 µM ferrostatin-1 (MCF7 cells [4]; MCF7, 24 h, 2 h pre-treatment with inhibitors) | toxicity (MTT absorbance) after XIAP downregulation (MCF7 cells [5]) | subcellular location of cytochrome c (MCF7 cells [6]) | ROS (DCFH-DA staining) (U373 cells) | activation of caspase 7 (caspase 7) | caspase 7 activity after XIAP silencing (MCF7 cells [5]; then 30 μg/mL for 6 h) |
| --- | --- | --- | --- | --- | --- | --- | --- | --- | --- | --- | --- | --- | --- | --- | --- | --- |
| CCCCCC/C=C\CCC1(O)C=CC(=O)C=C1 [Erioquinol, (Z)-4-(dec-3′-enyl)-4-hydroxycyclohexa-2,5-dien-1-one] | comparable decrease in TMRM fluorescence vs. control | ≤ 1 | 1.7 (≈ 6.84 µM) | marked accumulation of ROS | 0.36 (≈ 1.45 µM) | 2.63 (≈ 10.6 µM) | 14.7 (≈ 59.3 µM) | 4.25 (≈ 17.1 µM) | 1.93 (≈ 7.77 µM) | did not affect | did not change | significantly enhanced the toxicity | release of cytochrome c | marked accumulation of ROS | – | – |
| CCCCCC/C=C/CCc1ccc(O)cc1 [Gibbilimbol B, (E)-4-(dec-3′-enyl)phenol] | comparable decrease in TMRM fluorescence vs. control | ≤ 1 | 17.1 (≈ 73.6 µM) | absent | 11.5 (≈ 49.4 µM) | 16.4 (≈ 70.8 µM) | 20.3 (≈ 87.4 µM) | 27.4 (≈ 118 µM) | – | significantly inhibited | – | significantly enhanced the toxicity | release of cytochrome c | absent | activation of caspase 7 | robustly increased |
